# Experimental data reported in patent publication US20240000741A1, “ALL-TRANS RETINOIC ACID ENHANCES RADIOTHERAPY AND OVERCOMES IMMUNE SUPPRESSION FOR CANCER THERAPY” (The University of Chicago, priority 2022, published 2024).
# System: immune cells in non-irradiated tumors
# Test: Flow cytometric analysis of non-irradiated tumors in the two-tumor model
# Assay type: in vivo, mouse
# Description: Single cell suspensions were obtained as previously described (40). Cells were blocked with anti-Fc receptor (2.4 G2, BioXCell, Lebanon, New Hampshire, United States of America) and stained for live/dead with Zombie UV, followed staining using antibodies against CD45, CD4, CD8, NK1.1, CD11b, CD11c, Ly6C, Ly6G, F4/80, CD44, CD62L.
# More CD8^+ T and CD4^+ T cells were also observed in the non-irradiated tumors when primary tumors received IR+RA treatment.
# [1] = 8 days after IR+RA combination treatment
structure (smiles),measurement,setting,value
"CC1=C(/C=C/C(C)=C/C=C/C(C)=C/C(=O)O)C(C)(C)CCC1 [RA, all-trans retinoic acid]",PD-L1 expression on DCs in non-irradiated tumors,3 days post IR+RA treatment,Increased
same,PD-L1 expression on tumor cells in non-irradiated tumors,3 days post IR+RA treatment,Increased
same,CD11c+iNOS+ cells in non-irradiated tumor,[1],increased
same,proportion of CD11b+ cells in non-irradiated tumors,[1],significantly increased proportion
same,proportion of CD11b+CD11c+Ly6C+ cells in non-irradiated tumors,[1],significantly increased proportion
same,CD4+ T cells in non-irradiated tumors,primary tumors received IR+RA,More
same,CD8+ T cells in non-irradiated tumors,primary tumors received IR+RA,More
same,Foxp3+CD4+ T cells in non-irradiated tumors,primary tumors received IR+RA,marked decrease
same,proportion of CD4+ IFN-γ+ cells in non-irradiated tumors,primary tumors received IR+RA,increased
same,proportion of CD8+ IFN-γ+ cells in non-irradiated tumors,primary tumors received IR+RA,increased
same,proportion of CD8+GzmB+ cells in non-irradiated tumors,primary tumors received IR+RA,increased
